Data reported in the NIST ThermoML archive (doi:10.1016/j.jct.2013.10.028).
± gives the expanded uncertainty stated by the source.

How the values were obtained:
[1] = molar heat capacity at constant pressure; conditions: 100 kPa, Liquid, Large sample (1 g) DSC
[2] = molar heat capacity at constant pressure; wn = mass fraction of the nth substance listed; conditions: 100 kPa, Liquid, Large sample (1 g) DSC

For `O` [water], the “molar heat capacity at constant pressure” value ([1]; 308.15 K) was 75.47 ± 3.2 J/K/mol, the “molar heat capacity at constant pressure” value ([1]; 313.15 K) was 75.43 ± 3.2 J/K/mol and the “molar heat capacity at constant pressure” value ([1]; 318.15 K) was 75.41 ± 3.2 J/K/mol. The “molar heat capacity at constant pressure” value ([1]; 323.15 K) was 75.43 ± 3.2 J/K/mol, the “molar heat capacity at constant pressure” value ([1]; 328.15 K) was 75.45 ± 3.2 J/K/mol and the “molar heat capacity at constant pressure” value ([1]; 333.15 K) was 75.47 ± 3.2 J/K/mol. The “molar heat capacity at constant pressure” value ([1]; 338.15 K) was 75.47 ± 3.2 J/K/mol and the “molar heat capacity at constant pressure” value ([1]; 343.15 K) was 75.47 ± 3.2 J/K/mol.

For `[Cl-].[Li+]` [lithium chloride] + O, the “molar heat capacity at constant pressure” value ([2]; 308.15 K, w1 = 0.15) was 68.89 ± 2.9 J/K/mol, the “molar heat capacity at constant pressure” value ([2]; 308.15 K, w1 = 0.2001) was 67.4 ± 2.9 J/K/mol and the “molar heat capacity at constant pressure” value ([2]; 308.15 K, w1 = 0.2501) was 66.11 ± 2.8 J/K/mol. For the same compound, the “molar heat capacity at constant pressure” value ([2]; 308.15 K, w1 = 0.3) was 65.14 ± 2.8 J/K/mol, the “molar heat capacity at constant pressure” value ([2]; 308.15 K, w1 = 0.3499) was 64.84 ± 2.8 J/K/mol and the “molar heat capacity at constant pressure” value ([2]; 308.15 K, w1 = 0.3998) was 64.57 ± 2.7 J/K/mol. For the same compound, the “molar heat capacity at constant pressure” value ([2]; 308.15 K, w1 = 0.4502) was 64.39 ± 2.7 J/K/mol, the “molar heat capacity at constant pressure” value ([2]; 313.15 K, w1 = 0.15) was 68.97 ± 2.9 J/K/mol and the “molar heat capacity at constant pressure” value ([2]; 313.15 K, w1 = 0.2001) was 67.55 ± 2.9 J/K/mol. The “molar heat capacity at constant pressure” value ([2]; 313.15 K, w1 = 0.2501) was 66.26 ± 2.8 J/K/mol, the “molar heat capacity at constant pressure” value ([2]; 313.15 K, w1 = 0.3) was 65.44 ± 2.8 J/K/mol and the “molar heat capacity at constant pressure” value ([2]; 313.15 K, w1 = 0.3499) was 65.16 ± 2.8 J/K/mol. The “molar heat capacity at constant pressure” value ([2]; 313.15 K, w1 = 0.3998) was 64.89 ± 2.8 J/K/mol, the “molar heat capacity at constant pressure” value ([2]; 313.15 K, w1 = 0.4502) was 64.76 ± 2.7 J/K/mol and the “molar heat capacity at constant pressure” value ([2]; 318.15 K, w1 = 0.15) was 69.06 ± 2.9 J/K/mol. For the same compound, the “molar heat capacity at constant pressure” value ([2]; 318.15 K, w1 = 0.2001) was 67.65 ± 2.9 J/K/mol, the “molar heat capacity at constant pressure” value ([2]; 318.15 K, w1 = 0.2501) was 66.43 ± 2.8 J/K/mol and the “molar heat capacity at constant pressure” value ([2]; 318.15 K, w1 = 0.3) was 65.66 ± 2.8 J/K/mol. For the same compound, the “molar heat capacity at constant pressure” value ([2]; 318.15 K, w1 = 0.3499) was 65.4 ± 2.8 J/K/mol, the “molar heat capacity at constant pressure” value ([2]; 318.15 K, w1 = 0.3998) was 65.17 ± 2.8 J/K/mol and the “molar heat capacity at constant pressure” value ([2]; 318.15 K, w1 = 0.4502) was 65.05 ± 2.8 J/K/mol. For the same compound, the “molar heat capacity at constant pressure” value ([2]; 323.15 K, w1 = 0.15) was 69.18 ± 2.9 J/K/mol, the “molar heat capacity at constant pressure” value ([2]; 323.15 K, w1 = 0.2001) was 67.79 ± 2.9 J/K/mol and the “molar heat capacity at constant pressure” value ([2]; 323.15 K, w1 = 0.2501) was 66.6 ± 2.8 J/K/mol. For the same compound, the “molar heat capacity at constant pressure” value ([2]; 323.15 K, w1 = 0.3) was 65.9 ± 2.8 J/K/mol, the “molar heat capacity at constant pressure” value ([2]; 323.15 K, w1 = 0.3499) was 65.65 ± 2.8 J/K/mol and the “molar heat capacity at constant pressure” value ([2]; 323.15 K, w1 = 0.3998) was 65.48 ± 2.8 J/K/mol. For the same compound, the “molar heat capacity at constant pressure” value ([2]; 323.15 K, w1 = 0.4502) was 65.37 ± 2.8 J/K/mol, the “molar heat capacity at constant pressure” value ([2]; 328.15 K, w1 = 0.15) was 69.28 ± 2.9 J/K/mol and the “molar heat capacity at constant pressure” value ([2]; 328.15 K, w1 = 0.2001) was 67.93 ± 2.9 J/K/mol. For the same compound, the “molar heat capacity at constant pressure” value ([2]; 328.15 K, w1 = 0.2501) was 66.76 ± 2.8 J/K/mol, the “molar heat capacity at constant pressure” value ([2]; 328.15 K, w1 = 0.3) was 66.14 ± 2.8 J/K/mol and the “molar heat capacity at constant pressure” value ([2]; 328.15 K, w1 = 0.3499) was 65.92 ± 2.8 J/K/mol. For the same compound, the “molar heat capacity at constant pressure” value ([2]; 328.15 K, w1 = 0.3998) was 65.78 ± 2.8 J/K/mol, the “molar heat capacity at constant pressure” value ([2]; 328.15 K, w1 = 0.4502) was 65.68 ± 2.8 J/K/mol and the “molar heat capacity at constant pressure” value ([2]; 333.15 K, w1 = 0.15) was 69.36 ± 2.9 J/K/mol. For the same compound, the “molar heat capacity at constant pressure” value ([2]; 333.15 K, w1 = 0.2001) was 68.02 ± 2.9 J/K/mol, the “molar heat capacity at constant pressure” value ([2]; 333.15 K, w1 = 0.2501) was 66.93 ± 2.8 J/K/mol and the “molar heat capacity at constant pressure” value ([2]; 333.15 K, w1 = 0.3) was 66.34 ± 2.8 J/K/mol. For the same compound, the “molar heat capacity at constant pressure” value ([2]; 333.15 K, w1 = 0.3499) was 66.15 ± 2.8 J/K/mol, the “molar heat capacity at constant pressure” value ([2]; 333.15 K, w1 = 0.3998) was 66.04 ± 2.8 J/K/mol and the “molar heat capacity at constant pressure” value ([2]; 333.15 K, w1 = 0.4502) was 65.95 ± 2.8 J/K/mol. For the same compound, the “molar heat capacity at constant pressure” value ([2]; 338.15 K, w1 = 0.15) was 69.36 ± 2.9 J/K/mol, the “molar heat capacity at constant pressure” value ([2]; 338.15 K, w1 = 0.2001) was 68.08 ± 2.9 J/K/mol and the “molar heat capacity at constant pressure” value ([2]; 338.15 K, w1 = 0.2501) was 67.02 ± 2.8 J/K/mol. For the same compound, the “molar heat capacity at constant pressure” value ([2]; 338.15 K, w1 = 0.3) was 66.49 ± 2.8 J/K/mol, the “molar heat capacity at constant pressure” value ([2]; 338.15 K, w1 = 0.3499) was 66.33 ± 2.8 J/K/mol and the “molar heat capacity at constant pressure” value ([2]; 338.15 K, w1 = 0.3998) was 66.25 ± 2.8 J/K/mol. For the same compound, the “molar heat capacity at constant pressure” value ([2]; 338.15 K, w1 = 0.4502) was 66.17 ± 2.8 J/K/mol, the “molar heat capacity at constant pressure” value ([2]; 343.15 K, w1 = 0.15) was 69.42 ± 2.9 J/K/mol and the “molar heat capacity at constant pressure” value ([2]; 343.15 K, w1 = 0.2001) was 68.06 ± 2.9 J/K/mol. For the same compound, the “molar heat capacity at constant pressure” value ([2]; 343.15 K, w1 = 0.2501) was 67.12 ± 2.8 J/K/mol, the “molar heat capacity at constant pressure” value ([2]; 343.15 K, w1 = 0.3) was 66.58 ± 2.8 J/K/mol and the “molar heat capacity at constant pressure” value ([2]; 343.15 K, w1 = 0.3499) was 66.49 ± 2.8 J/K/mol. For the same compound, the “molar heat capacity at constant pressure” value ([2]; 343.15 K, w1 = 0.3998) was 66.39 ± 2.8 J/K/mol and the “molar heat capacity at constant pressure” value ([2]; 343.15 K, w1 = 0.4502) was 66.34 ± 2.8 J/K/mol.
